Test results: PMC6403271, “Characterization, mechanism of action and optimization of activity of a novel peptide-peptoid hybrid against bacterial pathogens involved in canine skin infections” (Scientific Reports, 2019)
Square brackets hold non-standard residues; d marks the D form. Peptide text beside a SMILES is read from it. N(1-naphthylmethyl)Gly = O=C(O)CNCc1cccc2ccccc12; 1Nal = N[C@@H](Cc1cccc2ccccc12)C(=O)O; 2Nal = N[C@@H](Cc1ccc2ccccc2c1)C(=O)O; d1Nal = N[C@H](Cc1cccc2ccccc12)C(=O)O; d2Nal = N[C@H](Cc1ccc2ccccc2c1)C(=O)O; Nle = CCCC[C@H](N)C(=O)O; Nphe = O=C(O)CNCc1ccccc1; NBuGly = CCCCNCC(=O)O

What was measured:
MSSA (ATCC 29213) = type: cell-based, Staphylococcus aureus; details: ATCC 29213, 18 h
Procedure: (§1) Activity of B1 was tested on 50P. aeruginosa isolates and 57S. pseudintermedius isolates (including 7 MRSP) that had been isolated in the diagnostic laboratory Sund Vet Diagnostik (University of Copenhagen) from various infections in dogs between 2009 and 2011. Representative MRSP (C22963), MSSA, and P. aeruginosa (26314) were used for testing the first set of B1 analogues.
(§2) MIC determination was performed by broth microdilution according to the Clinical and Laboratory Standard Institute (CLSI, M31-A3, 2008)[62]. In brief, each bacterial strain was diluted to concentration of 5 × 10^5 CFU/mL in Mueller Hinton broth II (MHB II) media (Oxoid) and added to a two-fold serial dilution of peptides and peptide-peptoid hybrids concentrations ranging from 1 to 64 µg/ml in 96-well plates (Nunc Internationals, Rochester, NY). The MICs were determined as a lowest concentration showing no visible growth after incubation for 18 hours at 37 °C. Experiments were performed in triplicates on two different days.

MRSP C22963 = type: cell-based, Staphylococcus pseudintermedius; details: 18 h
Procedure: as §1, §2

[1] = type: cell-based, human; details: human
Procedure: (§3) Briefly, two-fold serial dilutions (2.35 to 150 μM) of compounds in phosphate buffer saline (PBS) were mixed with equal volume of 0.5% v/v suspension of fresh human red blood cells (RBC) in the same buffer. After 1 h incubation at 37 °C, plates were centrifuged and aliquots of the supernatants were transferred to clear 96-well plates. Absorbance at 414 nm was measured and normalized using a negative (PBS, 0%) and a positive (melittin, 100%) control. The EC10 and EC50 are concentrations at which 10% and 50% of RBC were lysed, respectively, as interpolated graphically by the y-axis intersection of the plotted data.

human red blood cells = type: cell-based; details: for EC50: red cells of human, 1 h
Procedure: as §3

P. aeruginosa (26314) = type: cell-based, Pseudomonas aeruginosa; details: 26314, 18 h
Procedure: Activity of B1 was tested on […]. aeruginosa isolates and […]. pseudintermedius isolates (including 7 MRSP) that had been isolated in the diagnostic laboratory Sund Vet Diagnostik (University of Copenhagen) from various infections in dogs between 2009 and 2011. Representative […], and P. aeruginosa (26314) were used for testing the first set of B1 analogues. For antibacterial spectrum the following strains were used: Corynebacterium auriscanis, 31551, (54 C6, dog, ear, 2013); Enterococcus faecalis, 27404, (17 C7, dog, wound, 2011); Enterococcus faecium, 30951, (24 C1, dog, ear, 2013); Streptococcus canis, 26740-1, (14 H1, dog, ear, 2010); Staphylococcus aureus, 27266, (16 G9, dog, skin, 2010); Staphylococcus aureus, 27266, (16 G9, dog, skin, 2010); Staphylococcus pseudintermedius 22963, (3 B9, dog, 2007). Acinetobacter baumannii, 27065, (16 D1, dog, wound, 2010); E. coli, 30235, 23 A6, dog, wound, 2012; Klebsiella pneumoniae, 26233, (11 H5, dog, wound, 2010); Pasteurella canis, 31096, (24 C8, dog, skin, 2013); Proteus mirabilis, 25178, (9 A4, dog, ear, 2009); Pseudomonas aeruginosa 26314, 12 C5, dog, urine, 2010). MIC determination was performed by broth microdilution according to the Clinical and Laboratory Standard Institute (CLSI, […]-A3, 2008)[62]. In brief, each bacterial strain was diluted to concentration of 5 × 10^5 CFU/mL in Mueller Hinton broth II (MHB II) media (Oxoid) and added to a two-fold serial dilution of peptides and peptide-peptoid hybrids concentrations ranging from 1 to 64 μg/ml in 96-well plates (Nunc Internationals, Rochester, NY). The MICs were determined as a lowest concentration showing no visible growth after incubation for 18 hours at 37 °C. Experiments were performed in triplicates on two different days.

| Compound | Minimum Inhibitory Concentration MSSA (ATCC 29213) (MSSA (ATCC 29213)) | Minimum Inhibitory Concentration MRSP C22963 (MRSP C22963) | hemolysis at 1 h, 150 µM [1] | Haemolysis EC10 (human red blood cells) | Minimum Inhibitory Concentration P. aeruginosa (26314) (P. aeruginosa (26314)) | EC50 (human red blood cells) |
| --- | --- | --- | --- | --- | --- | --- |
| CC(C)C[C@H](NC(=O)[C@H](CCCCN)NC(=O)[C@@H](N)CCCCN)C(=O)N[C@@H](CCCCN)C(=O)N[C@@H](Cc1ccc2ccccc2c1)C(=O)N[C@@H](Cc1ccccc1)C(=O)N[C@@H](Cc1ccc2ccccc2c1)C(N)=O [Compound 8, Lys-Lys-Leu-Lys-(2-Nal)Ala-Phe-(2-Nal)Ala] (H-KKLK[2Nal]F[2Nal]-NH2; N-terminus assumed) | 16 µg/mL | 8 µg/mL | 34% | 56 µM | 32 µg/mL |  |
| CCCCN(CC(=O)N[C@@H](CCCCN)C(=O)N[C@@H](CCCCN)C(=O)N[C@@H](CCCCN)C(N)=O)C(=O)CN(Cc1cccc2ccccc12)C(=O)CN(Cc1ccccc1)C(=O)CNCc1cccc2ccccc12 [Compound 4, (N1-Nal)Gly-(NPhe)Gly-(N1-Nal)Gly-(NBu)Gly-Lys-Lys-Lys] (H-[N(1-naphthylmethyl)Gly][Nphe][N(1-naphthylmethyl)Gly][NBuGly]KKK-NH2; N-terminus assumed) | 16 µg/mL | 8 µg/mL | 24% | 54 µM | 32 µg/mL |  |
| CC(C)C[C@@H](NC(=O)[C@H](CCCCN)NC(=O)[C@@H](N)CCCCN)C(=O)N[C@@H](CCCCN)C(=O)N[C@H](Cc1cccc2ccccc12)C(=O)N[C@H](Cc1ccccc1)C(=O)N[C@H](Cc1cccc2ccccc12)C(N)=O [Compound 14, Lys-Lys-leu-Lys-(1-Nal)ala-phe-(1-Nal)ala] (H-KK[dL]K[d1Nal][dF][d1Nal]-NH2; N-terminus assumed) | 16 µg/mL | 4 to 8 µg/mL | 58% | 28 µM | 16 to 32 µg/mL | 128 µM |
| CCCC[C@H](NC(=O)[C@H](CCCCN)NC(=O)[C@H](CCCCN)NC(=O)[C@@H](N)CCCCN)C(=O)N[C@@H](Cc1cccc2ccccc12)C(=O)N[C@@H](Cc1ccccc1)C(=O)N[C@@H](Cc1cccc2ccccc12)C(N)=O [Compound 24, Lys-Lys-Lys-Nle-(1-Nal)Ala-Phe-(1-Nal)Ala] (H-KKK[Nle][1Nal]F[1Nal]-NH2; N-terminus assumed) | >64 µg/mL | 16 to 32 µg/mL | 60% | 3 µM | 16 µg/mL | 41 µM |
| CC(C)C[C@H](NC(=O)[C@H](Cc1ccc2ccccc2c1)NC(=O)[C@H](Cc1ccccc1)NC(=O)[C@@H](N)Cc1ccc2ccccc2c1)C(=O)N[C@@H](CCCCN)C(=O)N[C@@H](CCCCN)C(=O)N[C@@H](CCCCN)C(N)=O [Compound 13, (2-Nal)Ala-Phe-(2-Nal)Ala-Leu-Lys-Lys-Lys] (H-[2Nal]F[2Nal]LKKK-NH2; N-terminus assumed) | 32 µg/mL | 8 µg/mL | 15% | 110 µM | >64 µg/mL |  |
| CC(C)C[C@H](NC(=O)[C@H](CCCCN)NC(=O)[C@H](CCCCN)NC(=O)[C@@H](N)CCCCN)C(=O)N[C@@H](Cc1ccc2ccccc2c1)C(=O)N[C@@H](Cc1ccccc1)C(=O)N[C@@H](Cc1ccc2ccccc2c1)C(N)=O [Compound 9, Lys-Lys-Lys-Leu-(2-Nal)Ala-Phe-(2-Nal)Ala] (H-KKKL[2Nal]F[2Nal]-NH2; N-terminus assumed) | 16 µg/mL | 8 µg/mL | 39% | 46 µM | 16 µg/mL |  |
| CC(C)C[C@@H](NC(=O)[C@H](CCCCN)NC(=O)[C@H](CCCCN)NC(=O)[C@@H](N)CCCCN)C(=O)N[C@H](Cc1cccc2ccccc12)C(=O)N[C@H](Cc1ccccc1)C(=O)N[C@H](Cc1cccc2ccccc12)C(N)=O [Compound 15, Lys-Lys-Lys-leu-(1-Nal)ala-phe-(1-Nal)ala] (H-KKK[dL][d1Nal][dF][d1Nal]-NH2; N-terminus assumed) | 8 µg/mL | 2 µg/mL | 88% | 8 µM | 8 µg/mL | 40 µM |
| CC(C)C[C@@H](NC(=O)[C@H](CCCCN)NC(=O)[C@H](CCCCN)NC(=O)[C@@H](N)CCCCN)C(=O)N[C@H](Cc1ccc2ccccc2c1)C(=O)N[C@H](Cc1ccccc1)C(=O)N[C@H](Cc1ccc2ccccc2c1)C(N)=O [Compound 16, Lys-Lys-Lys-leu-(2-Nal)ala-phe-(2-Nal)ala] (H-KKK[dL][d2Nal][dF][d2Nal]-NH2; N-terminus assumed) | 8 to 16 µg/mL | 2 to 4 µg/mL | 60% | 18 µM | 32 µg/mL | 118 µM |
| CCCCN(CC(=O)N[C@@H](CCCCN)C(=O)N(CC(=O)N(CC(=O)N(CC(N)=O)Cc1cccc2ccccc12)Cc1ccccc1)Cc1cccc2ccccc12)C(=O)[C@H](CCCCN)NC(=O)[C@@H](N)CCCCN [Compound 2, Lys-Lys-(NBu)Gly-Lys-(N1-Nal)Gly-(NPhe)Gly-(N1-Nal)Gly] (H-KK[NBuGly]K[N(1-naphthylmethyl)Gly][Nphe][N(1-naphthylmethyl)Gly]-NH2; N-terminus assumed) | 8 to 16 µg/mL | 4 µg/mL | < 8% |  | 32 µg/mL |  |
| CC(C)C[C@H](NC(=O)[C@H](CCCCN)NC(=O)[C@H](Cc1ccc2ccccc2c1)NC(=O)[C@H](Cc1ccccc1)NC(=O)[C@@H](N)Cc1ccc2ccccc2c1)C(=O)N[C@@H](CCCCN)C(=O)N[C@@H](CCCCN)C(N)=O [Compound 11, (2-Nal)Ala-Phe -(2-Nal)Ala-Lys-Leu-Lys-Lys] (H-[2Nal]F[2Nal]KLKK-NH2; N-terminus assumed) | 16 µg/mL | 4 to 8 µg/mL | < 8% |  | 64 µg/mL |  |
